Experimental data taken from the NIST ThermoML archive (doi:10.1016/j.jct.2012.11.032).

Experiment: xn = mol fraction of the nth substance listed
Conditions: 101 kPa, Liquid; for speed of sound: Sing-around technique in a fixed-path interferometer; for mass density: Vibrating tube method

CCCCCCCCCCCC[n+]1ccn(C)c1.[Cl-] [1-dodecyl-3-methylimidazolium chloride] + O
Conditions	mass density [kg/m3]	speed of sound [m/s]
298 K, x1 = 2.7e-05	997.065	–
298 K, x1 = 3e-05	997.081	–
298 K, x1 = 4.8e-05	997.081	–
298 K, x1 = 7.4e-05	997.07	–
298 K, x1 = 9.4e-05	997.061	–
298 K, x1 = 0.000109	997.064	–
298 K, x1 = 0.000129	997.078	–
298 K, x1 = 0.000145	997.058	–
298 K, x1 = 0.000163	997.076	–
298 K, x1 = 0.000181	997.056	–
298 K, x1 = 0.000208	997.055	–
298 K, x1 = 0.000234	997.049	–
298 K, x1 = 0.000248	997.059	–
298 K, x1 = 0.000273	997.045	–
298 K, x1 = 0.000286	997.042	–
298 K, x1 = 0.000302	997.023	–
298 K, x1 = 0.000319	997.039	–
298 K, x1 = 0.000341	997.023	–
298 K, x1 = 0.000384	997.011	–
298 K, x1 = 0.000407	996.995	–
298 K, x1 = 0.000428	996.98	–
298 K, x1 = 0.0428	–	1500.7
303 K, x1 = 2.7e-05	995.678	–
303 K, x1 = 3e-05	995.688	–
303 K, x1 = 4.8e-05	995.688	–
303 K, x1 = 7.4e-05	995.68	–
303 K, x1 = 9.4e-05	995.666	–
303 K, x1 = 0.000109	995.667	–
303 K, x1 = 0.000129	995.679	–
303 K, x1 = 0.000145	995.66	–
303 K, x1 = 0.000163	995.674	–
303 K, x1 = 0.000181	995.656	–
303 K, x1 = 0.000208	995.653	–
303 K, x1 = 0.000234	995.647	–
303 K, x1 = 0.000248	995.65	–
303 K, x1 = 0.000273	995.635	–
303 K, x1 = 0.000286	995.632	–
303 K, x1 = 0.000302	995.606	–
303 K, x1 = 0.000319	995.625	–
303 K, x1 = 0.000341	995.608	–
303 K, x1 = 0.000384	995.594	–
303 K, x1 = 0.000407	995.571	–
303 K, x1 = 0.000428	995.568	–
303 K, x1 = 0.0027	–	1509.5
303 K, x1 = 0.003	–	1509.5
303 K, x1 = 0.0048	–	1509.8
303 K, x1 = 0.0074	–	1510.1
303 K, x1 = 0.0094	–	1510.4
303 K, x1 = 0.0109	–	1510.6
303 K, x1 = 0.0129	–	1510.8
303 K, x1 = 0.0145	–	1511
303 K, x1 = 0.0163	–	1511.2
303 K, x1 = 0.0181	–	1511.4
303 K, x1 = 0.0208	–	1511.8
303 K, x1 = 0.0234	–	1512
303 K, x1 = 0.0248	–	1512.1
303 K, x1 = 0.0273	–	1512.3
303 K, x1 = 0.0286	–	1512.3
303 K, x1 = 0.0302	–	1512.4
303 K, x1 = 0.0319	–	1512.5
303 K, x1 = 0.0341	–	1512.6
303 K, x1 = 0.0384	–	1512.5
303 K, x1 = 0.0407	–	1512.7
303 K, x1 = 0.0428	–	1512.7
308 K, x1 = 2.7e-05	994.072	–
308 K, x1 = 3e-05	994.075	–
308 K, x1 = 4.8e-05	994.073	–
308 K, x1 = 7.4e-05	994.068	–
308 K, x1 = 9.4e-05	994.05	–
308 K, x1 = 0.000109	994.047	–
308 K, x1 = 0.000129	994.059	–
308 K, x1 = 0.000145	994.046	–
308 K, x1 = 0.000163	994.052	–
308 K, x1 = 0.000181	994.039	–
308 K, x1 = 0.000208	994.032	–
308 K, x1 = 0.000234	994.027	–
308 K, x1 = 0.000248	994.022	–
308 K, x1 = 0.000273	994.008	–
308 K, x1 = 0.000286	994.004	–
308 K, x1 = 0.000302	993.979	–
308 K, x1 = 0.000319	993.993	–
308 K, x1 = 0.000341	993.986	–
308 K, x1 = 0.000384	993.958	–
308 K, x1 = 0.000407	993.935	–
308 K, x1 = 0.000428	993.939	–
308 K, x1 = 0.0027	–	1520.1
308 K, x1 = 0.003	–	1520.2
308 K, x1 = 0.0048	–	1520.4
308 K, x1 = 0.0074	–	1520.7
308 K, x1 = 0.0094	–	1521
308 K, x1 = 0.0109	–	1521.1
308 K, x1 = 0.0129	–	1521.3
308 K, x1 = 0.0145	–	1521.5
308 K, x1 = 0.0163	–	1521.7
308 K, x1 = 0.0181	–	1521.9
308 K, x1 = 0.0208	–	1522.2
308 K, x1 = 0.0234	–	1522.4
308 K, x1 = 0.0248	–	1522.5
308 K, x1 = 0.0273	–	1522.7
308 K, x1 = 0.0286	–	1522.8
308 K, x1 = 0.0302	–	1522.8
308 K, x1 = 0.0319	–	1522.9
308 K, x1 = 0.0341	–	1523
308 K, x1 = 0.0384	–	1522.8
308 K, x1 = 0.0407	–	1523
308 K, x1 = 0.0428	–	1523
313 K, x1 = 2.7e-05	992.261	–
313 K, x1 = 3e-05	992.046	–
313 K, x1 = 7.4e-05	992.253	–
313 K, x1 = 9.4e-05	992.137	–
313 K, x1 = 0.000109	992.207	–
313 K, x1 = 0.000129	992.221	–
313 K, x1 = 0.000145	992.226	–
313 K, x1 = 0.000163	992.224	–
313 K, x1 = 0.000181	992.217	–
313 K, x1 = 0.000208	992.206	–
313 K, x1 = 0.000234	992.203	–
313 K, x1 = 0.000248	992.194	–
313 K, x1 = 0.000273	992.178	–
313 K, x1 = 0.000286	992.177	–
313 K, x1 = 0.000302	992.159	–
313 K, x1 = 0.000319	992.158	–
313 K, x1 = 0.000341	992.147	–
313 K, x1 = 0.000384	992.121	–
313 K, x1 = 0.000407	992.068	–
313 K, x1 = 0.000428	992.103	–
313 K, x1 = 0.0027	–	1529.2
313 K, x1 = 0.003	–	1529.2
313 K, x1 = 0.0074	–	1529.7
313 K, x1 = 0.0094	–	1530
313 K, x1 = 0.0109	–	1530.1
313 K, x1 = 0.0129	–	1530.3
313 K, x1 = 0.0145	–	1530.4
313 K, x1 = 0.0163	–	1530.6
313 K, x1 = 0.0181	–	1530.8
313 K, x1 = 0.0208	–	1531.1
313 K, x1 = 0.0234	–	1531.3
313 K, x1 = 0.0248	–	1531.4
313 K, x1 = 0.0273	–	1531.5
313 K, x1 = 0.0286	–	1531.6
313 K, x1 = 0.0302	–	1531.6
313 K, x1 = 0.0319	–	1531.7
313 K, x1 = 0.0341	–	1531.8
313 K, x1 = 0.0384	–	1531.6
313 K, x1 = 0.0407	–	1531.8
313 K, x1 = 0.0428	–	1531.8
